According to patent US20140121240A1, “NOVEL PHARMACEUTICAL COMPOSITION” (MARUHO CO., LTD., priority 2011, published 2014):
Marks after values point to notes of the source that are not given here.

Assays:
[1] = system: spontaneous locomotor activity; test: Effect on spontaneous locomotor activity (Experiment 3 (2)); assay type: in vivo, mouse; details: for Spontaneous locomotor activity (Mean): measured from 1 h after administration
Method: (2) [Effect of Test Compound on Spontaneous Locomotor Activity] The same solution (50 μL) of test compound or a vehicle (50 μL) as described in the above-mentioned (1) was administered onto right dorsal neck of ICR female mice similarly pre-treated as described in Experiment 1. After one hour of the administration of the test compound solution or vehicle, these animals were placed into an apparatus for measuring spontaneous locomotor activity (SCANET, Melquest Ltd.), and their locomotor activity was measured for 30 minutes.

[2] = system: histamine-induced scratching behavior; test: Antipruritic effect in histamine-induced scratching model (Experiment 2); assay type: in vivo, mouse
Method: [Antipruritic Effect of Test Compound in Histamine-Induced Scratching Model]
After topical administration of a 3% w/v solution of a test compound or a reference compound as described in the following Table 6 in acetone (50 μL) or a vehicle (acetone; 50 μL) onto right dorsal neck of ICR female mice similarly pre-treated as described in Experiment 1, these animals were placed into a testing apparatus (MicroAct). After one hour of the administration of said compound solution or vehicle, a solution (50 μL) of histamine in saline (300 nmol/50 μL) or saline (50 μL) was intradermally administered to right dorsal neck of each mouse. Immediately after the administration, scratching behavior (counts of scratching) was measured for 30 minutes by MicroAct.
Inhibition rate on scratching behavior of each test compound was evaluated in terms of the following formula based on the counts of scratching in the test group in which each test compound solution was administered followed by administration of a histamine solution in saline (counts of scratching in compound-treated group), and the counts of scratching in the test group in which a vehicle (acetone) was administered followed by administration of a histamine solution in saline (counts of scratching in vehicle-treated group).
(§1) Ratio of inhibition rate on scratching behavior of each test compound to that of Compound A was calculated as antipruritic activity (%). For reference, PDE4 inhibitory activity of each compound (IC50) which was measured by a conventional manner is also shown in such Table.

PDE4 = PDE4 inhibitory activity measured by a conventional manner; assay type: biochemical
Method: as §1

[3] = system: pruritogen-induced scratching behavior; test: Antipruritic effect on pruritogen-induced scratching model (Experiment 1); assay type: in vivo, mouse; details: for Counts of scratching (Mean): 3% w/v in acetone 50 μL topical 1 h before, ICR female mouse
Description: [Antipruritic Effect of Test Compound on Pruritogen-Induced Scratching Model]
For the purpose of measuring scratching behavior (counts of scratching), a cylindrical magnet (diameter: 1 mm, length: 3 mm) was implanted into instep of right hindlimb of each mouse (ICR female mouse, 6 weeks old; Charles River Laboratories, Japan Inc.) under anesthesia at least three days before testing, and hair on her right dorsal neck was removed by a shaver under anesthesia the day before testing. After topical administration of a solution of test compound in acetone (3% w/v solution of 1-[2-(4S)-4-hydroxy-1,2,3,4-tetrahydroquinolin-1-yl]-4-pyridyl]-2,3-bis(dihydroxymethyl)-6,7-dimethoxynaphthalene sesquihydrate, as hereinafter referred to as Compound A, in acetone; 50 μL) or a vehicle (acetone; 50 μL) to the right dorsal neck of the above-treated mouse, these mice were placed into a testing apparatus (MicroAct, Neuroscience Inc.). After one hour of the administration of the above-mentioned solution, to the right dorsal neck of each mouse was intradermally administered a solution (50 μL) of a pruritogen in saline [histamine: 300 nmol/50 μL, U-46619 (chemical name: 9,11-dideoxy-9α,11α-methanoepoxyprosta-5Z,13E-dien-1-oic acid, Cayman Chemical Company): 10 nmol/50 μL, Compound 48/80 (Sigma): 3 μg/50 μL, serotonin (Sigma): 100 nmol/50 μL, or Substance P (Peptide Institute Inc.): 300 nmol/50 μL] or saline. Immediately after the administration, scratching behavior (counts of scratching) was measured for 30 minutes by MicroAct.

[4] = system: oxazolone-induced inflammatory reactions of right ear auricle; test: Chronic oxazolone-induced dermatitis model: ear auricle thickness (Experiment 4); assay type: in vivo, mouse; details: Compound A 1%, Tacrolimus 0.1%, Dexamethasone 0.01% w/v in 0.25% oxazolone
Method: [Antipruritic Effect of Test Compound in Chronic Oxazolone-Induced Dermatitis Model]
A magnet for measurement was implanted into an instep part of right hindlimb of BALB/c male mouse (fed for one week from five-week old; Charles River Laboratories, Japan Inc.) under anesthesia, and on the same day, sensitization was carried out by topically administering 0.5% w/v solution (10 μL) of oxazolone in acetone respectively onto the both sides of right ear auricle of the animal (sensitization day). On each point of the 7th, 9th, 11th, 14th and 16th day reckoned from the day after the sensitization (1st day), each mouse was challenged by topical administration of a 10 μL solution of test compound [acetone (vehicle-treated group), 0.25% w/v solution of oxazolone in acetone (oxazolone-treated group), or a test compound solubilized in 0.25% w/v oxazolone solution in acetone (test compound-treated group)] onto the both sides of right ear auricle of the animal to produce inflammatory reactions. Immediately after the administration, scratching behavior (counts of scratching) was measured for two hours by MicroAct. Thickness of right ear auricle of each mouse was measured by a thickness gauge before and 24 hours after the topical administration of each test compound solution. The percentage described in the Table means “% w/v”.

SMILES: COc1cc2cc(CO)c(CO)c(-c3ccnc(N4CC[C@H](O)c5ccccc54)c3)c2cc1OC [Compound A, 1-[2-(4S)-4-hydroxy-1,2,3,4-tetrahydroquinolin-1-yl]-4-pyridyl]-2,3-bis(dihydroxymethyl)-6,7-dimethoxynaphthalene sesquihydrate]
- Spontaneous locomotor activity (Mean) ([1]; 0.3% w/v in acetone 50 μL topical): 5814 counts/30 min.
- Spontaneous locomotor activity (Mean) ([1]; 1% w/v in acetone 50 μL topical): 5779 counts/30 min.
- Spontaneous locomotor activity (Mean) ([1]; 3% w/v in acetone 50 μL topical): 6260 counts/30 min.
- spontaneous locomotor activity lowering effect at a dose producing antipruritic effect, result in words ([1]; Compound A 3% w/v, cipamfylline 0.3% w/v): did not show spontaneous locomotor activity lowering effect
- Antipruritic activity (ratio of inhibition rate on scratching behavior to that of Compound A) ([2]; 3% w/v in acetone 50 μL topical 1 h before histamine 300 nmol/50 μL, ICR female mice, counts for 30 minutes): 100%
- antipruritic effect in histamine-induced scratching model, result in words ([2]; 3% w/v topical, histamine 300 nmol/50 μL): remarkable antipruritic effect
- IC50 (PDE4): 3 nM
- pruritogen-induced scratching behavior (counts of scratching), result in words ([3]; 3% w/v topical, all pruritogens of Tables 1 to 5): significantly inhibited
- Counts of scratching (Mean) ([3]; pruritogen Compound 48/80 3 μg/50 μL intradermal, n = 15): 521 beats/30 min.
- Counts of scratching (Mean) ([3]; pruritogen Substance P 300 nmol/50 μL intradermal, n = 15): 777 beats/30 min.
- Counts of scratching (Mean) ([3]; pruritogen U-46619 10 nmol/50 μL intradermal, n = 15): 1069 beats/30 min.
- Counts of scratching (Mean) ([3]; pruritogen histamine 300 nmol/50 μL intradermal, n = 11): 365 beats/30 min.
- Counts of scratching (Mean) ([3]; pruritogen serotonin 100 nmol/50 μL intradermal, n = 10): 841 beats/30 min.
- Ear auricle thickness (Mean) ([4]; 7th day): 0.35 mm
- Ear auricle thickness (Mean) ([4]; 8th day): 0.44** mm
- Ear auricle thickness (Mean) ([4]; 9th day): 0.39** mm
- Ear auricle thickness (Mean) ([4]; 10th day): 0.46** mm
- Ear auricle thickness (Mean) ([4]; 11th day): 0.44** mm
- Ear auricle thickness (Mean) ([4]; 12th day): 0.48** mm
- Ear auricle thickness (Mean) ([4]; 14th day): 0.44** mm
- Ear auricle thickness (Mean) ([4]; 15th day): 0.54** mm
- Ear auricle thickness (Mean) ([4]; 16th day): 0.47** mm
- Ear auricle thickness (Mean) ([4]; 17th day): 0.50** mm
- Ear auricle thickness (Mean) ([4]; sensitization day, BALB/c male mouse): 0.27 mm
